According to patent US20060281680A1, “Methods and compositions for modulating vascular integrity” (GENENTECH, INC., priority 2005, published 2006):

Assays:
Format in all cases: cell-based, human
NFATc1 = assay: IHC/immunofluorescence analysis of nuclear translocation of NFATc1; conditions: endothelial cells, 20 minutes after VEGF 30 ng/mL; adenoviral transduction MOI=100
Procedure: Primary human endothelial cells (7×10^3 cells/cm^2) were seeded into each well of an 8-chamber microscope slide (Nalgene Nunc, Naperville, Ill.) 24 hours prior to staining. Cells were infected with adenovirus (multiplicity of infection [MOI]=100) encoding for LacZ or DSCR1 for 2 hours in serum-free media containing 10 mM CaCl2 and 10 nM MgCl2 on a vertical shaker at room temperature. Thereafter, 5 times the volume of regular growth medium was added and cells were kept for 2 days in a CO2 incubator. After replacing the media, cells were treated with hVEGF at a concentration of 30 ng/mL for 20 minutes. Prior to incubation with various antibodies, cells were fixed with methanol for 4 minutes at −20° C. and washed with PBS at room temperature. Cells were incubated in PBS containing the primary mouse antihuman NFATc1 antibody (sc7294, Santa Cruz Biotechnology) for 1 hour at room temperature. Cells were then washed 3 times with PBS and incubated in PBS containing Alexa Fluor 488 antimouse IgG (Molecular Probes, Eugene, Oreg.). Cells were finally washed 3 times with PBS and mounted beneath coverslips in Vectashield medium (Vector Laboratories). Microscopy and photography were conducted using a Zeiss Axiovert 200 fluorescence microscope fitted with an AxioCam MR monochrome camera (Zeiss, Thornwood, N.Y.) using a ×63 oil objective.

DSCR1 [1] = assay: DSCR1 expression by real-time RT-PCR in HPAECs, HMVECs and HUAECs; conditions: HMVECs, HUAECs
Description: (§1) Cells and cell assays. Primary human endothelial cells were purchased from Clonetics (Santa Rosa, Calif.) and cultured according to the manufacturer's instructions. For gene calling experiments, human umbilical vein endothelial cells (HUVECs) were purchased from Clonetics (BioWhittaker, Walkersville, Md.) and maintained in endothelial growth medium (EBM-2) complemented with 5% fetal calf serum (FCS) following the manufacturer's instructions. Cells (1×107) were split at a cell density of 19 000 cell/cm2 and triplicate experiments for each condition were run in parallel. Twenty-four hours after plating the cells, cell were washed 3 times with phosphate-buffered saline (PBS) and media (Clonetics) containing either 0.1% bovine serum albumin (BSA) or 0.1% BSA plus VEGF (30 ng/mL) or 5% FCS. RNA isolation and reverse transcription-PCR (RT-PCR) analysis was performed as described.^21 For cell culture experiments, the following conditions were used: human (h) VEGF, 30 ng/mL; hTNF-α, 10 ng/mL; PMA, 200 ng/mL (Calbiochem, LaJolla, Calif.); CsA, 1 μM (Calbiochem); IO 5 μM (Sigma, St Louis, Mo.); thapsigargin, 50 nM (Sigma). […] 24 hours after serum starvation and dosing, cell were counted on a Coulter brand style cell counter. […]

DSCR1 [2] = assay: Western blot of DSCR1 protein in whole cell extracts of HUVECs; conditions: 6 hours of stimulation
Procedure: (§2) Cells cultured in 10-cm dishes were washed twice in Tris (tris(hydroxymethyl)aminomethane)-buffered saline, and 0.6 mL RIPA buffer (10 mM PBS, 1% Nonidet P-40, 0.5% sodium deoxycholate, 0.1% sodium dodecyl sulfate [SDS], […] phenylmethylsulfonyl fluoride, 30 μg/mL aprotinin, 1 mM sodium orthovanadate), and protease inhibitors (Roche Pharmaceuticals, Gaithersburg, Md.) were added. Mouse monoclonal antibody (mAb) directed against human NFATc 1, c2, and c3 was purchased from Santa Cruz Biotechnology (Santa Cruz, Calif.). Affinity-purified goat polyclonal antibody against human E-selectin, vascular cell adhesion molecule-1 (VCAM-1), intercellular adhesion molecule-1 (ICAM-1), and Cox-2 was from BD Pharmingen. Total endothelial cell extract, polyacrylamide gel electrophoresis (PAGE), blotting, and immunodetection were performed according to the Santa Cruz Biotechnology protocol. A total of […] whole-cell extract was loaded on each lane of a 4% to 16% polyacrylamide gel. The enhanced chemiluminescence (ECL) reaction kit was purchased from Amersham Pharmacia Biotech (Piscataway, N.J.), and horseradish peroxidase streptavidin from Vector Laboratories (Burlingame, Calif.) was used. For NFATc1 experiments, equal amounts of cell extract were loaded to visualize NFATc1 (mAb 7A6; 1:500; Santa Cruz Biotechnology) and the loading control α-tubulin (mAb from ICN, Santa Ana, Calif.; 1:5000). For Cox-2 and TF immunoblot analysis equal amounts of cell lysate were loaded on a 6% to 12% gradient SDS-PAGE. Cox-2 was analyzed with an anti-Cox2 mAb (RDI, 1:500) and TF with an anti-hTF mAb (clone 7G11) was generated at Genentech, and used at a 1:500 dilution. Before loading the samples on the gel, the protein amounts were quantified and adjusted accordingly. As loading control, an anti-γ-adaptin mAb was used (1:1000) on a 4% to 20% polyacrylamide gel.
DSCR1 was PCR amplified with primers DSCR1-EcoRI-Pro 5′, adding an extra proline and DSCR1-Stop-XhoI 3′, by using DSCR1 cDNA as a template and cloned into pGEX-KG. GST-DSCR1 was expressed and purified essentially as described previously.^23 Polyclonal rabbit anti-GST-DSCR1 was prepared by immunization with recombinant GST-DSCR1. Filtered crude serum was used for Western blots (1:400).

DSCR1 [3] = assay: GeneCalling analysis of DSCR1 mRNA expression in HUVECs; conditions: VEGF 30 ng/mL, relative to basal conditions
Description: as §1

DSCR1 [4] = assay: DSCR1 expression analysis by real-time RT-PCR (TaqMan) in HUVECs; conditions: serum-starved HUVECs, over 36 hours
Description: (§3) Cells and cell assays. Primary human endothelial cells were purchased from Clonetics (Santa Rosa, Calif.) and cultured according to the manufacturer's instructions. For gene calling experiments, human umbilical vein endothelial cells (HUVECs) were purchased from Clonetics (BioWhittaker, Walkersville, Md.) and maintained in endothelial growth medium (EBM-2) complemented with 5% fetal calf serum (FCS) following the manufacturer's instructions. Cells (1×107) were split at a cell density of 19 000 cell/cm2 and triplicate experiments for each condition were run in parallel. Twenty-four hours after plating the cells, cell were washed 3 times with phosphate-buffered saline (PBS) and media (Clonetics) containing either 0.1% bovine serum albumin (BSA) or 0.1% BSA plus VEGF (30 ng/mL) or 5% FCS. RNA isolation and reverse transcription-PCR (RT-PCR) analysis was performed as described.^21 For cell culture experiments, the following conditions were used: human (h) VEGF, 30 ng/mL; hTNF-α, 10 ng/mL; PMA, 200 ng/mL (Calbiochem, LaJolla, Calif.); CsA, 1 μM (Calbiochem); IO 5 μM (Sigma, St Louis, Mo.); thapsigargin, 50 nM (Sigma). In one instance inhibiting (si) RNAs were generated by Dharmacon (Lafayette, Colo.) based on the full-length cDNAs of the respective gene and using the “Smart-pool” service (Dharmacon, Lafayette, Colo.). For adenoviral transduction survival experiments, human umbilical vein endothelial cells (HUVECs) were maintained in endothelial growth medium (EBM-2) complemented with 5% FCS following the manufacturer's instructions. 3×10^5 cells were split per well of a 6 well plate (Primaria, BD Biosciences, Bedford, Mass.) and duplicate experiments for each condition were run in parallel. Cells were infected with adenovirus (MOI=100) encoding for a gD peptide (Ad-Control), DSCR1 (Ad-DSCR1) or an antisense construct with the coding sequence inverted (Ad-DSCR1-AS) for 2 h in serum free media containing 10 mM […] and 10 nM MgCl2 on a vertical shaker at room temperature. Thereafter, 5 times the volume of regular growth medium containing 5% FCS was added and cells were kept for 1 day in a CO2 incubator. Thereafter, cells were washed three times with PBS and basal media (Clonetics, Santa Rosa, Calif.) containing 0.1 % BSA was added and PMA/IO, H202, and ZVAD as indicated. 24 hours after serum starvation and dosing, cell were counted on a Coulter brand style cell counter. For cell culture experiments, the following conditions were used: PMA: 200 ng/ml (Calbiochem, LaJolla, Calif.), Ionomycine: 5 μM (Sigma, St. Louis, Mo.), a 3% H202 solution was diluted 1:300 in basal media, 0.1% BSA to result in a 0.01% H202 solution, ZVAD 5 μM.

Cox-2, E-selectin, TF = assay: Real-time RT-PCR of inflammatory marker / VEGF target genes in HUVECs
Description: as §3

HUVECs = assay: GeneCalling gene expression profiles of stimulated HUVECs
Description: as §1

[5] = test system: TF, VCAM-1, E-selectin, ICAM-1; assay: FACS analysis of inflammatory markers on GFP+ siRNA-transfected HUVECs
Procedure: For transient transfection experiments including siRNA, HUVECs were plated in 6-well plates as described for transient transfection experiments. For 6 replicas, 600 pmol siRNA (Dharmacon, Lafayette, Colo.), 7.5 μg luciferase, and 4 μg Renilla reporter construct were mixed in 6 mL high-glucose DMEM. For FACS and immunohistochemical (IHC) experiments, 11.5 μg enhanced green fluorescent protein (EGFP) plasmid was added instead of the luciferase plasmid. Prior to incubation at 37° C. for 25 to 30 minutes, 30 μL Targefect solution A and 60 μL Targefect solution B (Targeting Systems) were added to the mixture; 1 mL of this solution was used for lipofection as described. Cells were washed twice with PBS prior to addition of serum-free medium and dosing for the indicated amount of time.

DSCR1 [6] = assay: Western blot of DSCR1 after siRNA transfection of HUVECs
Procedure: as §2, with “The enhanced chemiluminescence (ECL) reaction kit was purchased from Amersham Pharmacia Biotech (Piscataway, N.J.), and horseradish peroxidase streptavidin from Vector Laboratories (Burlingame, Calif.) was used. For NFATc1 experiments, equal amounts of cell extract were loaded to visualize NFATc1 (mAb 7A6; 1:500; Santa Cruz Biotechnology) and the loading control α-tubulin (mAb from ICN, Santa Ana, Calif.; 1:5000). For Cox-2 and TF immunoblot analysis equal amounts of cell lysate were loaded on a 6% to 12% gradient SDS-PAGE.” left out, “As loading control, an anti-γ-adaptin mAb was used (1:1000) on a 4% to 20% polyacrylamide gel.” left out

NFAT = NFAT luciferase reporter gene assay in endothelial cells
Procedure: For HUVEC and human microvascular endothelial cell (HMVECs) transient transfections, cells (7.5×104) were plated per well of a 6-well dish in 3 mL growth medium (Primaria; BD Biosciences, Bedford, Mass.). The amounts of plasmid DNA used in the lipofection mixture were calculated for transfection of the total of 3 wells. Then, 1.25 μg expression vector, 3.75 μg luciferase reporter, and 2.0 μg SV-Renilla reference reporters were mixed and 14 μL F1 lipofectin reagent (Targeting Systems, Santee, Calif.) was added. Then, 4.5 mL high-glucose Dulbecco modified Eagle medium (DMEM) was added to the mixture. Transient transfection was conducted as recommended by the manufacturer. For reporter gene expression experiments, cells were lysed by using the Dual Luciferase Reporter Kit (Promega, San Luis Obispo, Calif.) in 300 μL of 1×passive lysis buffer following the recommendations of the manufacturer.
For transient transfection experiments including siRNA, HUVECs were plated in 6-well plates as described for transient transfection experiments. For 6 replicas, 600 pmol siRNA (Dharmacon, Lafayette, Colo.), 7.5 μg luciferase, and 4 μg Renilla reporter construct were mixed in 6 mL high-glucose DMEM. For FACS and immunohistochemical (IHC) experiments, 11.5 μg enhanced green fluorescent protein (EGFP) plasmid was added instead of the luciferase plasmid. […]

[7] = GFP+ activated endothelial cells

Substance	nuclear localization of NFATc1 (NFATc1)	DSCR1 expression (real-time RT-PCR) (DSCR1 [1])	DSCR1 protein levels (DSCR1 [2])	induced DSCR1 mRNA expression (DSCR1 [3]; after 6 hours)	induced DSCR1 mRNA expression (DSCR1 [3]; after 24 hours)	DSCR1 expression levels (real-time RT-PCR) (DSCR1 [4])	expression of Bcl-2 (Cox-2, E-selectin, TF; HUVECs, VEGF stimulation, entire experiment)	GM-CSF, TF, COX-2, VCAM-1 and E-selectin RNA levels (Cox-2, E-selectin, TF; HUVECs, between 0 and 2 hours after VEGF)	GM-CSF, TF, COX-2, VCAM-1 and E-selectin RNA levels (Cox-2, E-selectin, TF; HUVECs, between 6 and 36 hours after VEGF, compared to untreated cells)	increase in gene expression (COX2, E-selectin, TF mRNA) (Cox-2, E-selectin, TF; endothelial cells, 4 hours of incubation)	changes in traces representing alterations in expression of genes (HUVECs; after 6 hours)	changes in traces representing alterations in expression of genes (HUVECs; after 24 hours)	ICAM-1 expression [5, 7]	expression levels of TF, E-selectin and VCAM-1 [5, 7]	magnitude of induction of inflammatory gene expression in VEGF-stimulated versus PMA/IO-stimulated cells ([5]; GFP+ endothelial cells)	DSCR1 protein expression from cotransfected PRKN-DSCR1-FLAG (DSCR1 [6]; anti-Flag Western blot)	reduction in endogenous DSCR1 levels (DSCR1 [6]; rabbit polyclonal antiserum Western blot)	increase in NFAT activity relative to siControl (NFAT; HUVECs in presence of IO/PMA)	increase in NFAT activity relative to siControl (NFAT; HUVECs in presence of VEGF)
VEGF	prominent nuclear localization of NFATc1	increased levels of DSCR1 expression	induction of DSCR1	4.8 fold	2.9 fold	induced prolonged expression of DSCR1	consistently expressed	increased	reversed into repression	2- to 3 fold	1.7%	3.4%	–	–	–	–	–	–	–
siDSCR1: siRNA to DSCR1 (NM_004414): pool of four in VEGF studies, AACGUAUGACAAGGACAUCAC in PMA/IO studies (one strand only stated, further chemistry not given here)	–	–	–	–	–	–	–	–	–	–	–	–	not significantly affected	increase	clearly below	complete absence	50% to 70%	2 fold	3 fold
